Experimental findings from ChEMBL document CHEMBL1201862, “PubChem BioAssay data set” (2004) are described below.

Among the test systems are SK-MEL-2; HOP-92; HT-29; SW-620; MDA-N; TK-10; NCI-H522; OVCAR-4; Malme-3M; DU-145; SK-OV-3; SK-MEL-28; SF-539; M14; RXF 393; MDA-MB-435; OVCAR-3; SN12C; NCI-H460; Hs-578T.
What all share (experiment): growth of human tumour cells (NCI), 48 h

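48-hour exposure; five concentrations; linearly interpolated endpoints. GI50: concentration for 50% inhibition of growth.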 Activity calls are given as the source filed them. Rule as the data show it: active = GI50 up to about 1.1 µM and inactive = higher.

As for `O=C(NNCC(O)COc1ccccc1)c1ccccc1` (stereo unspecified), the GI50 in the test with SK-MEL-2, in the test on HOP-92, in the test on HT-29, with SW-620, with MDA-N and with TK-10 was > 100 µM (inactive) throughout. Also, the GI50 in the test on NCI-H522, in the test with OVCAR-4, in the test on Malme-3M, in the test with DU-145, with SK-OV-3 and in the test on SK-MEL-28 was > 100 µM (inactive) throughout. Further, the GI50 with SF-539, in the test on M14, in the test on RXF 393, in the test with MDA-MB-435, in the test with OVCAR-3 and in the test on SN12C was > 100 µM (inactive) each time.

As to `CCCNc1ncnc2c1ncn2C`, the GI50 with SK-MEL-2 is > 100 µM (inactive); in the test on HOP-92, 37.6 µM (inactive); in the test on SW-620, 94.4 µM (inactive); in the test on MDA-N, > 100 µM (inactive); in the test with TK-10, > 100 µM (inactive); in the test with NCI-H522 it was 41.8 µM (inactive). Besides, the GI50 with OVCAR-4 is > 100 µM (inactive); in the test with Malme-3M, 45.3 µM (inactive); in the test with DU-145, 85.3 µM (inactive); with SK-OV-3, > 100 µM (inactive); in the test with SK-MEL-28, > 100 µM (inactive); in the test on SF-539, 34.2 µM (inactive). In addition, the GI50 in the test with M14 was 58.5 µM (inactive); with RXF 393, > 100 µM (inactive); with MDA-MB-435 it was > 100 µM (inactive); with OVCAR-3, 58.5 µM (inactive); in the test with SN12C it was 27.4 µM (inactive).

With `Cc1cc(N(CCC#N)CCC#N)ccc1C(/N=N/c1ccc([N+](=O)[O-])cc1)=N\NC(=O)c1cc(Cl)ccc1C(=O)c1ccccc1`, the GI50 in the test with SK-MEL-2 was 11.1 µM (inactive); in the test on HT-29, 10.4 µM (inactive); in the test with SW-620 it was 8.65 µM (inactive); in the test on MDA-N, 18.9 µM (inactive); in the test with TK-10 it was 16.9 µM (inactive); in the test with NCI-H522 it was 1.87 µM (inactive). Besides, the GI50 in the test with OVCAR-4 is 9.2 µM (inactive); in the test with Malme-3M, 13.2 µM (inactive); in the test on DU-145, 10.9 µM (inactive); in the test with SK-OV-3, 13.5 µM (inactive); with SK-MEL-28, 20.2 µM (inactive); in the test on M14 it was 17.5 µM (inactive). Besides, the GI50 in the test on RXF 393 is 13 µM (inactive); with NCI-H460 it was 6.1 µM (inactive); in the test on Hs-578T, 17.4 µM (inactive); in the test with MDA-MB-435, 22.6 µM (inactive); in the test with OVCAR-3, 4.86 µM (inactive); in the test on SN12C, 19.3 µM (inactive).

In the case of `COC(=O)c1ccccc1C#CCCCOS(C)(=O)=O`, the GI50 in the test on SK-MEL-2, in the test on HT-29, in the test on SW-620, in the test on MDA-N, with TK-10 and with OVCAR-4 was > 10 µM (inactive) in each case. Moreover, the GI50 in the test with Malme-3M, with DU-145, in the test on SK-OV-3, in the test with SK-MEL-28, in the test on SF-539 and with M14 was > 10 µM (inactive) throughout. Also, the GI50 in the test with RXF 393, in the test on NCI-H460, in the test with Hs-578T, with MDA-MB-435, in the test with OVCAR-3 and with SN12C was > 10 µM (inactive) throughout.

On to `O=S(=O)(c1ccccc1)c1ccc(-c2nc(-c3ccc4c(c3)Sc3ccccc3S4)cs2)cc1`, for which the GI50 is 20.7 µM (inactive) with HOP-92; > 100 µM (inactive) in the test with HT-29; > 100 µM (inactive) with SW-620; 22.1 µM (inactive) with TK-10; > 100 µM (inactive) in the test on OVCAR-4; 39.5 µM (inactive) in the test with Malme-3M. The GI50 in the test with DU-145 is > 100 µM (inactive); in the test on SK-OV-3 it was 18.9 µM (inactive); with SF-539, 49.5 µM (inactive); in the test with M14 it was 36.1 µM (inactive); in the test on RXF 393 it was 15.8 µM (inactive); in the test on NCI-H460 it was > 100 µM (inactive). Besides, the GI50 was 8.69 µM (inactive) in the test with Hs-578T, > 100 µM (inactive) in the test on MDA-MB-435, > 100 µM (inactive) in the test with OVCAR-3 and > 100 µM (inactive) in the test with SN12C.

Regarding `CC(=O)ON(C(C)=O)C1C(COC(c2ccccc2)(c2ccccc2)c2ccccc2)OC2OC3(CCCC3)OC21` (stereo unspecified), the GI50 is 27.2 µM (inactive) with SK-MEL-2; 2.42 µM (inactive) in the test with HOP-92; > 26.6 µM (inactive) with HT-29; 8.63 µM (inactive) in the test on SW-620; > 81.7 µM (inactive) with TK-10; 2.46 µM (inactive) in the test with NCI-H522. Also, the GI50 was 7.8 µM (inactive) with OVCAR-4; > 89.7 µM (inactive) with Malme-3M; 5.53 µM (inactive) in the test on SK-OV-3; > 100 µM (inactive) with SK-MEL-28; > 100 µM (inactive) with SF-539; 7.18 µM (inactive) in the test with M14. The GI50 is 4.44 µM (inactive) in the test on RXF 393, 6.75 µM (inactive) with NCI-H460, 5.37 µM (inactive) in the test with OVCAR-3 and 5.13 µM (inactive) in the test with SN12C.

Turning to `Nc1ncnc2c1ncn2C1CCC(CP(=O)(O)O)C1` (stereo unspecified), the GI50 with SK-MEL-2, in the test on HT-29, in the test with SW-620, in the test on MDA-N, with TK-10 and in the test with OVCAR-4 was > 100 µM (inactive) each time. Besides, the GI50 in the test on Malme-3M, in the test with DU-145, in the test on SK-OV-3, with SK-MEL-28, in the test with SF-539 and with M14 was > 100 µM (inactive) throughout. Further, the GI50 with RXF 393, in the test with NCI-H460, in the test with Hs-578T, in the test on MDA-MB-435, in the test on OVCAR-3 and with SN12C was > 100 µM (inactive) throughout.

`O=C1Nc2ccc(Cl)cc2C(=O)N2CCC[C@@H]12`: the GI50 in the test on SK-MEL-2, with HOP-92, in the test with HT-29, with SW-620, with MDA-N and with TK-10 was > 100 µM (inactive) each time. Moreover, the GI50 in the test on NCI-H522, in the test on OVCAR-4, in the test with Malme-3M, with DU-145, with SK-OV-3 and in the test on SK-MEL-28 was > 100 µM (inactive) throughout. Moreover, the GI50 in the test on M14 is > 100 µM (inactive); in the test on RXF 393, 60.3 µM (inactive); in the test with NCI-H460, > 100 µM (inactive); in the test on MDA-MB-435, > 100 µM (inactive); in the test with OVCAR-3, > 100 µM (inactive); in the test with SN12C, > 100 µM (inactive).

Take `CCC(C)C(NC(=O)c1c2ccccc2nc2ccccc12)C(=O)O` (stereo unspecified): the GI50 is > 100 µM (inactive) with SK-MEL-2; > 100 µM (inactive) in the test on HOP-92; 75.9 µM (inactive) in the test on HT-29; > 100 µM (inactive) in the test on SW-620; > 100 µM (inactive) in the test with TK-10; > 100 µM (inactive) with NCI-H522. Also, the GI50 with OVCAR-4 is > 100 µM (inactive); in the test with Malme-3M it was 51.2 µM (inactive); in the test on DU-145, > 100 µM (inactive); with SK-OV-3, > 100 µM (inactive); with SK-MEL-28 it was > 100 µM (inactive); in the test with SF-539 it was 60.7 µM (inactive). Besides, the GI50 in the test with M14 was > 100 µM (inactive); in the test on NCI-H460, > 100 µM (inactive); in the test on MDA-MB-435, 79.1 µM (inactive); in the test with OVCAR-3, > 100 µM (inactive); with SN12C it was > 100 µM (inactive).

Turning to `O=S(O)CCCCSSCc1ccccc1CSSCCCCS(=O)O`, the GI50 is 35.2 µM (inactive) in the test on SK-MEL-2; 21.9 µM (inactive) with HOP-92; 8.34 µM (inactive) in the test with HT-29; 25.8 µM (inactive) with SW-620; 43.4 µM (inactive) with TK-10; 4.43 µM (inactive) in the test with NCI-H522. Moreover, the GI50 was 4.21 µM (inactive) in the test with OVCAR-4; 8.91 µM (inactive) with Malme-3M; > 100 µM (inactive) in the test with SK-OV-3; 13.1 µM (inactive) in the test with SK-MEL-28; 15.1 µM (inactive) with SF-539; 10.3 µM (inactive) in the test on M14. The GI50 with RXF 393 is 7.94 µM (inactive); in the test on NCI-H460, 51.9 µM (inactive); in the test with OVCAR-3 it was 10.5 µM (inactive); with SN12C, 26 µM (inactive).

As to `COc1cc2c[n+](C)c3c4cc(OC)c(OC)cc4c(OCc4ccccc4)cc3c2cc1OC`, the GI50 with SK-MEL-2 was 1.63 µM (inactive); with HOP-92, 0.966 µM (active); in the test on HT-29, 2.28 µM (inactive); in the test with SW-620 it was 0.805 µM (active); in the test on MDA-N it was 0.982 µM (active); in the test with TK-10, > 31.6 µM (inactive). The GI50 was 0.155 µM (active) with NCI-H522; 2.02 µM (inactive) in the test on OVCAR-4; 1.29 µM (inactive) in the test with Malme-3M; 1.08 µM (active) in the test on DU-145; 11.7 µM (inactive) in the test with SK-OV-3; 1.24 µM (inactive) with SK-MEL-28. Besides, the GI50 in the test with SF-539 is 0.114 µM (active); in the test on M14 it was 1.77 µM (inactive); in the test on RXF 393, 1.6 µM (inactive); in the test with NCI-H460 it was 6.62 µM (inactive); in the test on MDA-MB-435 it was 1.09 µM (active); with OVCAR-3, 0.877 µM (active). The GI50 with SN12C was 0.265 µM (active).
